Drawing on US4307094A, “Triazolopyridazine derivatives” (Hoffmann-La Roche Inc., priority 1979, dated 1981), this text covers IC50 for 4 compounds.

For orientation: IC50 means the concentration that gives 50% inhibition. Lower therefore signals greater potency.

The assay addresses T1, angiotensin converting enzyme (Oryctolagus cuniculus, UniProt P12822).
T1 sequence (P12822 34-1310): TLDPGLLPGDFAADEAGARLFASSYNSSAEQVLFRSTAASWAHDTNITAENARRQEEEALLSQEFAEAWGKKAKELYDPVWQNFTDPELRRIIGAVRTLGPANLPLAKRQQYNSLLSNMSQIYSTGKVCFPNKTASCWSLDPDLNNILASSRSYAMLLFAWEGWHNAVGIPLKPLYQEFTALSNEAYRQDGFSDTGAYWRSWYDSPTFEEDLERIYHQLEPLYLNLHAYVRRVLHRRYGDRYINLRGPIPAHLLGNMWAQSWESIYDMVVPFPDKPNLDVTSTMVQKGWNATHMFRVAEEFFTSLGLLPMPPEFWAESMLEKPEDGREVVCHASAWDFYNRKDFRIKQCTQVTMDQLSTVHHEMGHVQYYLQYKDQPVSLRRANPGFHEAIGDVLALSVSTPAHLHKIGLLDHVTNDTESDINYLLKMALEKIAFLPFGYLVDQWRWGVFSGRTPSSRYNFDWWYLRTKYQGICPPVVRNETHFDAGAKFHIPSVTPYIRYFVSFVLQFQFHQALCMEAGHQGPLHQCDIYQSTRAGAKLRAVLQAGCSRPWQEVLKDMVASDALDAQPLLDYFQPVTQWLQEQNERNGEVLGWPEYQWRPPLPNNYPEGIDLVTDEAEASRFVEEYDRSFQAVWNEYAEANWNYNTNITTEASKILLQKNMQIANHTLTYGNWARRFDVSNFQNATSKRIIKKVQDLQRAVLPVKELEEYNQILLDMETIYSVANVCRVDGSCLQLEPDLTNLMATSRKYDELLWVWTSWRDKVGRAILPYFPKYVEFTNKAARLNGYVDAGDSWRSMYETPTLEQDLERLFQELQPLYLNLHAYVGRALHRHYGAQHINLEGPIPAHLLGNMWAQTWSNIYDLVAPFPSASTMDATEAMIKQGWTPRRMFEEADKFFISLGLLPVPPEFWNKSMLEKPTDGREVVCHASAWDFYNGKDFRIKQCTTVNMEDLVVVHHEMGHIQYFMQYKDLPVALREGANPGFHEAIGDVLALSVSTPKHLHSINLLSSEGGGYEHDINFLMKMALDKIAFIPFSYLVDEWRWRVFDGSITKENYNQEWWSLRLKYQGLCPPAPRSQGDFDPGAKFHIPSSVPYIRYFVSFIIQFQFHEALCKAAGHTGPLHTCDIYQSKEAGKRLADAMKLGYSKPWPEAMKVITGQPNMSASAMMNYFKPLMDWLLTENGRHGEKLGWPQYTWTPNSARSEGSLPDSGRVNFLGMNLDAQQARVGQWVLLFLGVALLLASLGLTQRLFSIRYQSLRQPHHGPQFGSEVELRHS
Nature of the assay: inhibition of angiotensin converting enzyme in vitro (cleavage of hippuryl-histidyl-leucine). The format is biochemical. To be noted: substrate hippuryl-histidyl-leucine 2 mM, potassium phosphate buffer pH 8.3 (100 mM), NaCl 300 mM, 25 minutes, 37° C. The protocol: The activity of the present triazolopyridazine derivatives in inhibiting angiotensin converting enzyme in vitro can be determined by the following test.
The method used is based on the method of Cushman and Cheung (Biochem. Pharmacol., 20, 1637-1648) incorporating the modifications introduced by Hayakari et al. (Anal. Biochem., 84, 361-369). The substrate (hippuryl-histidyl-leucine, 2 mM) is incubated with angiotensin converting enzyme in the presence or absence of various concentrations of test substance in potassium phosphate buffer (pH 8.3; 100 mM) containing sodium chloride (300 mM) for 25 minutes at 37° C. (total […] 500 μl). The reaction is terminated by the addition of 3 ml of potassium phosphate buffer (pH 8.3; 200 mM) at 0° C. 2,4,6-trichloro-s-triazine (3%) in 1.5 ml of dioxan is added, and the mixture is agitated until the yellow chromophore has developed fully. The samples are then centrifuged to remove any precipitate which has formed. The yellow chromophore formed by the reaction of the 2,4,6-trichloro-s-triazine with free hippuric acid is measured spectrophotometrically at 382 nm. IC50 values are defined as the concentration of test substance which reduces by 50% the cleavage of hippuryl-histidyl-leucine by angiotensin converting enzyme under the aforementioned conditions.
`O=C(CCn1c(=O)n2n(c1=O)C(C(=O)O)C=CC2)NO` (stereo not shown) [Compound C, 2-[2-(N-hydroxycarbamoyl)ethyl]-2,3,5,8-tetrahydro-1,3-dioxo-1H-1,2,4-triazolo[1,2-a]pyridazine-5-carboxylic acid] yielded an IC50 of 3.3 µM.

Regarding `O=C(O)CCn1c(=O)n2n(c1=O)C(C(=O)O)C=CC2` (stereo not shown) [Compound A, 5-carboxy-2,3,5,8-tetrahydro-1,3-dioxo-1H-1,2,4-triazolo[1,2-a]pyridazine-2-propionic acid], the IC50 was 18 µM. As for `NC(=O)CCn1c(=O)n2n(c1=O)C(C(=O)O)C=CC2` (stereo not shown) [Compound B, 2-(2-carbamoylethyl)-2,3,5,8-tetrahydro-1,3-dioxo-1H-1,2,4-triazolo[1,2-a]-pyridazine-5-carboxylic acid], the figure is 65 µM; as for `O=C(O)C1C=CCn2c(=O)n(CCS)c(=O)n21` (stereo not shown) [Compound D, 2,3,5,8-tetrahydro-2-(2-mercaptoethyl)-1,3-dioxo-1H-1,2,4-triazolo[1,2-a]pyridazine-5-carboxylic acid], 0.48 µM.
